Data reported in patent US7842683B2, “Neurotherapeutic compositions and method” (Revaax Pharmaceuticals, LLC, priority 1999, dated 2010).

Legend:
golden hamsters = experiment: Seed finding model of anxiety; format: in vivo, Syrian golden hamsters (Mesocricetus auratus)
From the text: Clavulanic acid (CLAV) is structurally similar to the beta-lactam antibiotics. A most robust and simple bioassay for screening beta-lactams for CNS activity is the golden hamster seed finding model of anxiety. Briefly, hamsters are deprived of food overnight. The following day they are exposed to the additional stress of being taken from their home cage and placed in a novel environment for a few minutes. This manipulation stimulates the release of the stress hormone cortisol (FIG. 37). During their absence from the home cage, sunflower seeds are hidden under the bedding in one of the corners. When returned to the home cage, hamsters routinely scramble along the walls for 1-2 min before settling down, locating and eating the seeds. However, animals treated with the benzodiazepine anxiolytic chlordiazepoxide find seeds in less than 10 sec.
Male, Syrian golden hamsters (Mesocricetus auratus) (120-130 g) obtained from Harlan Sprague-Dawley Laboratories (Indianapolis, Ind.) were housed individually in Plexiglas cages (24 cm×24 cm×20 cm), maintained on a reverse light:dark cycle (14L:10D; lights on at 19:00 hr) and provided food and water ad libitum. A range of concentrations of CLAV (saline vehicle, 0.1, 1.0, 10, 100 1,000 ng/kg) were tested in six groups of hamsters (4-8/group)(FIG. 25). All tests were conducted during the dark phase of the circadian cycle under dim red illumination. Prior to testing all animals were fasted for 20-24 hrs. Ninety min after intraperitoneal (IP) injection of drug, animals were taken from their home cage and placed into a holding cage for 2 min. During their absence, six sunflower seeds were buried under the bedding in one corner of their home cage. Animals were placed back into their home cage randomly facing any one of the empty corners and timed for their latency to find the seeds in a five min observation period. Latency times were analyzed with a one-way ANOVA followed by Scheffe's post hoc tests. Assumption of equal variances was tested (Hartley's F-max=2.1 p>0.05)
It was hypothesized that CLAV functioned as an anxiolytic in the seed finding assay by blocking NAALADase activity in the brain. If this notion were true then it would be predicted that drugs known to block NAALADase should also enhance seed finding. To this end, animals were treated with N-acetyl-beta-aspartyl-glutamic acid (beta-NAAG), a competitive inhibitor of NAALADase (Serval et al., 1992) and tested in the seed finding model of anxiety. The study was similar to that outlined in Section I with one notable exception. […] Beta-NAAG (FW 304) was given in a dose of 3 ng in a volume of 1 μl saline ICV. The average adult hamster brain weights ca. 1.2 g of which 22% is extracellular fluid. The estimated beta-NAAG concentration was 11 ng/ml or 36 nM.
Two groups of six animals each were fasted overnight as previously described and tested the following day. One group was treated with beta-NAAG and the other saline vehicle and one hr later timed for latency to find the hidden sunflower seeds. A Student t-test for unpaired data was used for statistical comparisons.

[1] = test system: hamsters and other test species; experiment: Animal tests: effective dose for neuroactivity; format: in vivo; details: for threshold effective dose (administered parenterally): parenteral
Method: Animal tests indicate a threshold effective dose of moxalactam (administered parenterally) to be about 50 μg/kg of body weight. Based on animal test data and on the known distribution of parenterally administered moxalactam between the brain and other body tissues, that the effective minimum neurogenic protease inhibiting, concentration of moxalactam in the brain is about 30 nM. […] For parenterally administered moxalactam the minimum effective dose in hamsters and other test species is about 50 micrograms per kg of body weight, more or less. The use of moxalactam in an oral dosage form, preferably modified or derivatized in the form of an active ester, is estimated to range from about 2.5 to about 50 mg per dose, much less than the dose of moxalactam necessary to provide therapeutically effective antibiotic concentration. The effective oral dose of clavulanate is expected to be about 0.1 to about 10 mgs per dose.

rats = experiment: Morris water maze, cue navigation; format: in vivo, rat
Method: (§1) On the day following the last day (Day 4) of spatial navigation, animals were tested for cue navigation. In these tests, the platform was raised above water level. One hr before testing animals were treated with Mox or saline vehicle. The same animals that were treated with Mox during spatial navigation were treated with Mox for cue navigation. Animals were run through a series of two minute trials with 45 min between trials. At each trial, the platform was moved to a different quadrant. The cue navigation study was identical to the spatial navigation except the platform was visible and the testing was done over five consecutive trials done on a single day. Animals were scored for latency to find the platform, percent time spent in each quadrant, path distance and swim speed for all testing periods
as §1, with “CLAV” for “Mox”, “animals” for “animals that were”, “min” for “minute”

| Compound | latency to find the sunflower seeds vs vehicle (golden hamsters; 1 ng/kg IP, 90 min) | dose with maximal efficacy in the seed finding test (golden hamsters; IP) [ng/kg body weight] | latency to find the sunflower seeds (golden hamsters; doses of 10 ng and above (up to 1,000 ng/kg) IP, 90 min) | effective i.p. dose ([1]; i.p.) | i.p. doses with psychotropic effects (antianxiety, antiaggression, cognition enhancement) ([1]; i.p.) | distance traveled to find the platform (rats; CLAV) | latency to find the platform (rats; CLAV) | percentage of time spent in each quadrant (rats; CLAV) | swim rate (rats; CLAV) | change in seed finding time (golden hamsters; dose not given) | threshold effective dose (administered parenterally) ([1]; listed as Moxalactam) | threshold effective dose (administered parenterally) ([1]; listed as moxalactam) | path length (rats; Mox) | percentage of time spent in each quadrant (rats; Mox) | swim speed (rats; Mox) | latency to find the platform (rats; Mox, trials 1, 3 and 4) |
| --- | --- | --- | --- | --- | --- | --- | --- | --- | --- | --- | --- | --- | --- | --- | --- | --- |
| O=C(O)[C@H]1/C(=C/CO)O[C@@H]2CC(=O)N21 [CLAV, Clavulanic acid] | not significantly different | 10 | less than 8.0 sec | less than 1 microgram/kg | less than 1 μg/kg | not significantly different | no main effect for treatments | no significant difference between treatments | no significant main effect | – | – | – | – | – | – | – |
| CO[C@@]1(NC(=O)C(C(=O)O)c2ccc(O)cc2)C(=O)N2C(C(=O)O)=C(CSc3nnnn3C)CO[C@@H]21 (stereo partly drawn) [Mox, 7-β-[2-carboxy-2-(4-hydroxyphenyl)acetamido]-7α-methoxy-3-[[(1-methyl-1H-tetrazol-5-yl)thio]methyl]-1-oxa-1-dethia-3-cephem-4-carboxylic acid] | – | – | – | – | – | – | – | – | – | reduction in seed finding time from minutes to seconds | ≥ 50 μg/kg of body weight | about 50 μg/kg of body weight | much shorter path length | no significant difference between treatments | no significant difference | significantly shorter latencies |
